Laboratory results from patent publication US20230310436A1, “COMBINATION THERAPY FOR CANCERS WITH KRAS MUTATION” (COTHERA BIOSCIENCE, INC., priority 2019, published 2023).

Assays:
Format in all cases: cell-based
[1] = test system: KRAS^G12V-NSCLC H2291 cell line; assay: Ex vivo Edu proliferation test (MI, GI %), H2291; details: Table 3; 7 days; uM: osimertinib 0.5, afatinib 0.2, trametinib 0.02, TAK-733 0.18, palbociclib 0.15, ribociclib 5
Description: (§1) For ex vivo drug testing, the cells were exposed to a combination of drugs or single drugs for 4 days or 7 days. Following exposure with drug, 1,000-5,000 cells were labeled with 5-ethynyl-2′-deoxyuridine (Edu) to assess the tumor cell proliferation rates. The labeling lasted 24 hours in the presence of drug exposure. In the control group, epithelial tumor cells received no drug exposure with media change (with 0.1% DMSO), but were similarly labeled with Edu. The labeled cells were fixed and blocked with 3% BSA and 0.5% Triton X-100 for 2 hours at room temperature, followed by staining with Hoechst 33342 and EpCAM antibody (1:4000) in PBS solution containing 0.5% Triton X-100 overnight at 4° C. Subsequently, the cells were rinsed with PBST then incubated with Alexa Fluor® 647 conjugated goat-antimouse secondary antibody for 30 minutes at room temperature.
(§2) The incorporated Edu was detected by Click-iT reaction where fixed cells were incubated with a reaction mixture containing 1× Click-iT Edu reaction buffer, CuSO4, and azide-conjugated Alexa Fluor dye in the dark. The stained cells were washed with PBS two times before image acquisition and analysis.
(§3) For image acquisition and analysis, the stained tumor cells were imaged by a high-content screening (HCS) platform (Thermo Scientific CellomicsArrayScanXTi HCS reader). The 10× objective was used to collect images. Twenty-five fields were imaged for each well for the analysis. From the images three fluorescent signals were obtained from the HCS reader. Blue fluorescent signals recorded nucleus signals stained with Hoechst 33342, green fluorescent signal detected the Edu incorporated in newly synthesized DNA, and red fluorescent signal detected the EpCAM positive epithelial cells population.
(§4) The MI (Maximum Inhibition Index) was calculated using the EpCAM and Edu positive readout (Tables 1-4). MI=Edu positive cells in control/Edu positive cells in treatment. MI4 indicates an MI value after 4 days of treatment and MI7 indicates an MI values after 7 days of treatment. The MI and growth inhibition rate (GI %) values for KRAS^G12A-NSCLC (H1573 and H2009), KRAS^G12C-NSCLC (H358, H23 and H2030), KRAS^G12V-NSCLC (H2291 and H2444) and KRAS^G12D-NSCLC (H1588 and SK-LU-1) cell lines are shown in Tables 1-4, respectively. GI % is calculated as GI %=(1−1/MI)*100%.

[2] = test system: KRAS^G12A-NSCLC H1573 cell line; assay: Ex vivo Edu proliferation test (MI, GI %), H1573; details: Table 1; 4 days; uM: osimertinib 0.5, afatinib 0.2, cobimetinib 0.4, trametinib 0.02, TAK-733 0.18, palbociclib 0.15, ribociclib 5
Description: as §1, §2, §3
The MI (Maximum Inhibition Index) was calculated using the EpCAM and Edu positive readout (Tables 1-4). MI=Edu positive cells in control/Edu positive cells in treatment. MI4 indicates an MI value after 4 days of treatment and MI7 indicates an MI values after 7 days of treatment. […] GI % is calculated as GI %=(1−1/MI)*100%.

[3] = test system: KRAS^G12C-NSCLC H2030 cell line; assay: Ex vivo Edu proliferation test (MI, GI %), H2030; details: Table 2a; 7 days; uM: osimertinib 0.5, afatinib 0.2, cobimetinib 0.4, trametinib 0.02, palbociclib 0.15, ribociclib 5
Description: as §1, §2, §3, §4

[4] = test system: KRAS^G12V-NSCLC H2444 cell line; assay: Ex vivo Edu proliferation test (MI, GI %), H2444; details: Table 3; 4 days; uM: osimertinib 0.5, afatinib 0.2, trametinib 0.02, TAK-733 0.18, palbociclib 0.15, ribociclib 5
Description: as §1, §2, §3, §4

[5] = test system: KRAS^G12C-NSCLC H358 cell line; assay: Ex vivo Edu proliferation test (MI, GI %), H358; details: Table 2a; 7 days; uM: osimertinib 0.5, afatinib 0.2, cobimetinib 0.4, trametinib 0.02, palbociclib 0.15, ribociclib 5
Description: as §1, §2, §3, §4

[6] = test system: KRAS^G12A-NSCLC H2009 cell line; assay: Ex vivo Edu proliferation test (MI, GI %), H2009; details: Table 1; 4 days; uM: osimertinib 0.5, afatinib 0.2, cobimetinib 0.4, trametinib 0.02, TAK-733 0.18, palbociclib 0.15, ribociclib 5
Description: as §1, §2, §3, §4

[7] = test system: KRAS^G12D-NSCLC SK-LU-1 cell line; assay: Ex vivo Edu proliferation test (MI, GI %), SK-LU-1; details: Table 4; 4 days; uM: osimertinib 0.5, afatinib 0.2, cobimetinib 0.4, trametinib 0.02, TAK-733 0.18, palbociclib 0.15, ribociclib 5
Description: as §1, §2, §3, §4

[8] = test system: KRAS^G12C-NSCLC H23 cell line; assay: Ex vivo Edu proliferation test (MI, GI %), H23; details: Table 2a; 7 days; uM: osimertinib 0.5, afatinib 0.2, cobimetinib 0.4, trametinib 0.02, palbociclib 0.15, ribociclib 5
Description: as §1, §2, §3, §4

[9] = test system: KRAS^G12D-NSCLC H1588 cell line; assay: Ex vivo Edu proliferation test (MI, GI %), H1588; details: Table 4; 4 days; uM: osimertinib 0.5, afatinib 0.2, cobimetinib 0.4, trametinib 0.02, TAK-733 0.18, palbociclib 0.15, ribociclib 5
Description: as §1, §2, §3, §4

## CC(=O)Nc1cccc(-n2c(=O)n(C3CC3)c(=O)c3c(Nc4ccc(I)cc4F)n(C)c(=O)c(C)c32)c1 [Trametinib, trametinib]
[1]
  GI % (Growth Inhibition Rate), H2291: 75.62%
  MI 7 (Maximum Inhibition Index), H2291: 4.11
[2]
  GI % (Growth Inhibition Rate), H1573: 87.80%
  MI 4 (Maximum Inhibition Index), H1573: 8.20
[3]
  GI % (Growth Inhibition Rate), H2030: 64.45%
  MI 7 (Maximum Inhibition Index), H2030: 2.81
[4]
  GI % (Growth Inhibition Rate), H2444: 87.22%
  MI 4 (Maximum Inhibition Index), H2444: 7.82
[5]
  GI % (Growth Inhibition Rate), H358: 20.76%
  MI 7 (Maximum Inhibition Index), H358: 1.26
[6]
  GI % (Growth Inhibition Rate), H2009: 65.93%
  MI 4 (Maximum Inhibition Index), H2009: 2.93
[7]
  GI % (Growth Inhibition Rate), SK-LU-1: 47.99%
  MI 4 (Maximum Inhibition Index), SK-LU-1: 1.92
[8]
  GI % (Growth Inhibition Rate), H23: 1.20%
  MI 7 (Maximum Inhibition Index), H23: 1.01
[9]
  GI % (Growth Inhibition Rate), H1588: 45.63%
  MI 4 (Maximum Inhibition Index), H1588: 1.84
